Assay [1] is described as follows: Modulation of HTT mRNA splicing in human GM04724 cells assessed as mHTT protein potency. The class given is cell-based.
Assay [2] in a line: Modulation of HTT mRNA exon 49b splicing in human GM04724 cells. The class given is cell-based.
Assay [3] can be described thus: Modulation of HTT mRNA exon 49-50 splicing in human GM04724 cells. The assay is classed as cell-based.
The target of assay [4] is SMN2 pre-mRNA. Put plainly: Modulation of SMN2 mRNA FL splicing in spinal muscular atrophy patient fibroblasts. The class given is tissue-based, Homo sapiens. The conditions noted are these: fibroblast.
For assay [5], the target named is SMN2 pre-mRNA. Put plainly: Modulation of SMN2 mRNA D7 splicing in spinal muscular atrophy patient fibroblasts. The class given is tissue-based, Homo sapiens. Particulars: fibroblast.
Assay [6] has as its target SMN2 pre-mRNA. The experiment in a line: Modulation of SMN2 mRNA FL splicing in spinal muscular atrophy patient fibroblasts assessed as SMN2 protein potency. The assay is classed as tissue-based, Homo sapiens. The conditions noted are these: fibroblast.

As for `CN(c1ccc(-c2ccc(-c3cnn(C)c3)cc2O)nn1)[C@H]1C[C@@H]2CC[C@@](C)(N2)[C@H]1F`, the concentration giving a half-maximal response (EC50) in assay [1], in assay [2], in assay [3], in assay [4] and in assay [6] was 0.01 nM throughout. Also, half-maximal inhibition in assay [5] (IC50) required 0.01 nM.

Take `C[C@]12CC[C@H](C[C@@H](Oc3ccc(-c4ccc(-c5cn[nH]c5)cc4O)nn3)C1)N2`: the EC50 in assay [1] was 0.01 nM; in assay [2], 0.01 nM; in assay [3], 0.01 nM; in assay [4], 16 nM; in assay [6], 0.01 nM. This compound gave an IC50 in assay [5] of 0.01 nM.

`COC[C@@]12CC[C@@H](C[C@H](N(C)c3ccc(-c4cc(F)c(-n5ccnc5)cc4O)nn3)C1)N2`: the EC50 in assay [1], in assay [2], in assay [3], in assay [4] and in assay [6] was 0.01 nM throughout. For the same compound, in assay [5], it took 0.01 nM to reach half-maximal inhibition (IC50).

On to `COC[C@]12CC[C@H](C[C@@H](N(C)c3ccc(-c4cc(F)c(-n5ccnc5)cc4O)nn3)C1)N2`, for which the EC50 in assay [1], in assay [2], in assay [3], in assay [4] and in assay [6] was 0.01 nM each time. The same compound returned an IC50 in assay [5] of 0.01 nM.

Turning to `C[C@@]12CC[C@@H](C[C@H](Oc3ccc(-c4ccc(-n5ccnc5)cc4O)nn3)C1)N2`, the EC50 turned out to be 0.01 nM in assay [1]; 0.01 nM in assay [2]; 0.01 nM in assay [3]; 16 nM in assay [4]; 0.01 nM in assay [6]. This compound also came in with an IC50 in assay [5] of 16 nM.

Regarding `C[C@@]12CC[C@@H](C[C@H](Oc3ccc(-c4ccc(-c5cn[nH]c5)cc4O)nn3)C1)N2`, the EC50 in assay [1], in assay [2], in assay [3], in assay [4] and in assay [6] was 0.01 nM in each case. It took 0.01 nM to reach half-maximal inhibition in assay [5] (IC50).

The values above are taken from ChEMBL document CHEMBL4706758, “Novel Substituted Pyridazines as Splicing Modulators for Modulating Splicing of mRNA and Uses Thereof for Treating Diseases” (ACS Med Chem Lett, 2021).
